In the supplement of paper PMC10307832:

Key:
Assay in all cases: relative viability (nuclei count vs DMSO), 5 days (fraction); higher = more cells survive
[1] = compound: CC(O)(CS(=O)(=O)c1ccc(F)cc1)C(=O)Nc1ccc(C#N)c(C(F)(F)F)c1 [Bicalutamide] + C[C@]1(O)C[C@@H](c2nc(-c3ccc4ccc(-c5ccccc5)nc4c3)c3c(N)nccn32)C1 [Linsitinib] (partner 1 µM)
Summary of the method: (§1)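 Lung cancer cell lines were pin-tool dosed in 1536-well plates on the day after seeding, with either a lone drug or a fixed anchor-drug dose plus five library-drug doses (not always all listed) in √10 steps. Nuclei were counted on 4× images after 5 days. Relative viability is the ratio of treated-well to vehicle-well nuclei counts, with each value a median of duplicate plates.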

[2] = compound: CC(O)(CS(=O)(=O)c1ccc(F)cc1)C(=O)Nc1ccc(C#N)c(C(F)(F)F)c1 [Bicalutamide] + Nc1ncn([C@H]2C[C@H](O)[C@@H](CO)O2)c(=O)n1 [Decitabine] (partner 2 µM)
Summary of the method: as §1

[3] = compound: CC(O)(CS(=O)(=O)c1ccc(F)cc1)C(=O)Nc1ccc(C#N)c(C(F)(F)F)c1 [Bicalutamide] + CC(=O)Nc1cccc(-n2c(=O)n(C3CC3)c(=O)c3c(Nc4ccc(I)cc4F)n(C)c(=O)c(C)c32)c1 [Trametinib] (partner 0.02 µM)
Summary of the method: as §1

[4] = compound: C(C(=O)C(=O)O)Br [Bromopyruvate] + CCNC(=O)c1noc(-c2cc(C(C)C)c(O)cc2O)c1-c1ccc(CN2CCOCC2)cc1 [Luminespib] (partner 0.01 µM)
Summary of the method: as §1

Cell Line	relative viability ([1]; first compound 0.08 µM)	relative viability ([1]; first compound 0.253 µM)	relative viability ([1]; first compound 0.8 µM)	relative viability ([1]; first compound 2.53 µM)	relative viability ([2]; first compound 0.08 µM)	relative viability ([2]; first compound 0.253 µM)	relative viability ([2]; first compound 0.8 µM)	relative viability ([2]; first compound 2.53 µM)	relative viability ([3]; first compound 0.08 µM)	relative viability ([3]; first compound 0.253 µM)	relative viability ([3]; first compound 0.8 µM)	relative viability ([3]; first compound 2.53 µM)	relative viability ([4]; first compound 1 µM)	relative viability ([4]; first compound 3.162 µM)	relative viability ([4]; first compound 10 µM)	relative viability ([4]; first compound 31.62 µM)	relative viability ([4]; first compound 100 µM)
201T	1.04	1.02	1.07	1.04	0.87	0.847	0.857	0.889	0.703	0.725	0.7	0.738	1.04	1.04	1.08	1.05	1.12
A549	0.567	0.531	0.696	0.527	0.351	0.271	0.259	0.248	–	–	–	–	–	–	–	–	–
A-427	1.16	1.15	1.21	1.18	0.608	0.533	0.666	0.562	0.782	0.731	0.845	0.688	0.763	1.04	0.918	0.971	0.817
ABC-1	0.912	0.889	0.768	0.861	1.25	0.929	1.23	0.847	–	–	–	–	0.519	0.823	0.575	0.499	0.234
BEN	1.04	0.802	1.26	0.966	0.736	0.658	0.838	0.7	1.05	0.94	1.17	1.1	0.587	0.342	0.66	0.303	0.295
CAL-12T	0.69	0.777	1.04	0.814	–	–	–	–	0.37	0.343	0.398	0.264	0.375	0.421	0.606	0.285	0.357
COR-L23	0.997	0.919	1.16	0.732	0.476	0.389	0.455	0.367	0.616	0.545	0.71	0.579	0.611	0.602	0.815	0.694	0.119
COR-L 105	0.941	0.93	0.899	0.815	0.765	0.6	0.698	0.63	0.397	0.371	0.383	0.381	0.775	0.827	0.925	0.692	0.552
Calu-6	0.972	0.999	1.12	0.98	–	–	–	–	–	–	–	–	–	–	–	–	–
ChaGo-K-1	–	–	–	–	0.524	0.46	0.561	0.551	0.854	0.865	1.03	0.926	0.565	0.697	0.646	0.705	0.417
EBC-1	0.874	0.874	1.05	0.858	–	–	–	–	–	–	–	–	–	–	–	–	–
EKVX	1.06	1.04	1.06	0.894	0.336	0.37	0.32	0.333	0.319	0.31	0.359	0.283	0.824	0.883	1.22	0.811	1.02
EMC-BAC-2	0.854	0.796	0.803	0.756	0.976	0.875	0.948	0.892	0.911	0.771	0.891	0.728	0.993	1.24	1.29	1.22	1.22
EPLC-272H	1.17	1.13	1.33	1.16	0.384	0.373	0.382	0.342	0.315	0.281	0.332	0.281	0.28	0.183	0.249	0.2	0.211
H3255	0.949	0.848	1.08	0.867	0.601	0.571	0.668	0.525	0.666	0.567	0.717	0.569	0.859	1	1.05	0.896	1.04
HARA	0.953	0.797	1.06	1.1	0.632	–	0.536	0.574	0.942	–	0.634	0.48	0.707	0.939	0.486	0.75	0.802
HCC-15	0.826	0.837	0.932	0.969	0.63	0.595	0.74	0.584	0.384	0.338	0.412	0.371	0.363	0.416	0.509	0.328	0.25
HCC-44	0.67	0.664	0.691	0.788	0.967	0.911	0.942	0.959	1.16	1.09	1.07	1.1	1.09	1.12	1.54	0.968	0.948
